Experimental data published in patent US10100284B2, “Method for inducing differentiation of pluripotent stem cells into endodermal cells” (TOAGOSEI CO., LTD., priority 2013, dated 2018).
Where no end group is shown, it is not given here.

Columns and labels:
[1] = tested on: iPS cells (clone name: 201B2 or 201B7); assay: ALB ELISA of iPS cell culture supernatant; assay type: cell-based, human; conditions: peptide concentration in medium 6 μM; as culture time increased; FIG. 4
Description: (§1) The stem cell differentiation-inducing activity of the differentiation-inducing synthetic peptide (Sample 1) obtained in Example 1 was evaluated by quantifying changes over time in the expressed amounts (typically extracellular secretion) of AFP and ALB, which are proteins known as markers of differentiation into endodermal cells. It is known that AFP is expressed in cells that have differentiated into liver precursor cells among the endodermal cells, while ALB is expressed in cells that have differentiated sufficiently to function effectively as hepatocytes (that is, hepatocytes or hepatocyte-like cells). […]
50 μL of the accessory Chromogen Substrate Solution (coloring reagent) was then added per well, and left standing for 15 minutes in the dark. […] Absorbance A450 at 450 nm and absorbance A550 at 550 nm were then measured with a spectrophotometer in the reaction liquid in the wells.
(§2) Absorbance values A(450-550) were calculated by subtracting the absorbance A550 from the absorbance A450 obtained by the previous measurement (that is, absorbance A(450-550)=[…]) for each of the samples from the AFP evaluation test group and ALB evaluation test group. […]

[2] = tested on: iPS cells (clone name: 201B2 or 201B7); assay: AFP ELISA of iPS cell culture supernatant; assay type: cell-based, human; conditions: peptide concentration in medium 6 μM; as culture time increased; FIG. 4
Description: as §1
200 μL of a substrate solution obtained by mixing 1 volume each of the accessory coloring reagent (A) and coloring reagent (B) was added per well, and left standing for 30 minutes in the dark. […] Absorbance A450 at 450 nm and absorbance A550 at 550 nm were then measured with a spectrophotometer in the reaction liquid in the wells.
as §2

LLLLLLVGLTAPAGKKRTLRKNDRKKR-CONH2 (LLLLLLVGLTAPAGKKRTLRKNDRKKR-NH2) [Sample 1]
ALB level of the culture supernatant in comparison with peptide-free group with the same culture time [1]: increased dramatically | AFP level of the culture supernatant in comparison with peptide-free group with the same culture time [2]: increased dramatically
